Experimental findings from ChEMBL document CHEMBL3727348, “3-(aryl or heteroaryl) methyleneindolin-2-one derivatives as inhibitors of cancer stem cell pathway kinases for the treatment of cancer” (2014) are described below.

Test [1] has as its system FaDu. The test can be described thus: Cytotoxic activity against human FADU cancer stem cells incubated for 72 hrs by Cell-titer-Glo luminescence assay. Type of test: functional, cell-based.
In test [2] the test system is FaDu. Kind of test: Cytotoxic activity against human FADU bulk cells incubated for 72 hrs by Cell-titer-Glo luminescence assay. Type of test: functional, cell-based.

As for `O=C1Nc2ccc(-c3csc(-c4ccccc4)n3)cc2/C1=C/c1ccc(C(=O)NCCN2CCOCC2)c(=O)[nH]1`, the IC50 (as a rule, the midpoint of a concentration-inhibition curve) with FaDu [1] is 33.7 µM.
On to `Cc1[nH]c(/C=C2\C(=O)Nc3ccc(-c4ncc(-c5ccccc5)o4)cc32)c(C)c1C(=O)N1CCN(C)CC1`, for which, in the test with FaDu [1], the 50% inhibitory concentration (IC50) came out at 2.38 µM. Compared with the last compound, the IC50 is about 14-fold lower.
`CCN(CC)CCNC(=O)c1c(C)[nH]c(/C=C2\C(=O)Nc3ccc(C4CCN(C5CCOCC5)CC4)cc32)c1C` had a half-maximal inhibitory concentration (IC50) in the test on FaDu [2] of 23.9 µM.
Regarding `CCN(CC)CCNC(=O)c1c(C)[nH]c(/C=C2\C(=O)Nc3ccc(-c4nnc(-c5ccccc5)o4)cc32)c1C`, the IC50 in the test with FaDu [1] turned out to be 21.5 µM; in the test on FaDu [2] it was 8.23 µM.
As for `Cc1cc(C)c(/C=C2\C(=O)Nc3cc(-c4cccc(C#N)c4C)ccc32)[nH]1`, in the test on FaDu [1], the midpoint of inhibition, the IC50, lay at 39.1 µM.
Turning to `CCN(CC)CCNC(=O)c1c(C)[nH]c(/C=C2\C(=O)Nc3cnc(-c4csc(-c5ccccc5)n4)cc32)c1C`, the results for the IC50 with FaDu [1] and in the test on FaDu [2] were 4.75 µM and 11.2 µM, respectively.
Compound `O=C1Nc2ccc(-c3csc(-c4ccncc4)n3)cc2/C1=C/c1ccc(N2CCOCC2)cc1` displayed an IC50 in the test with FaDu [2] of 17.5 µM.
As for `Cc1[nH]c(/C=C2\C(=O)Nc3ccc(-c4csc(C5CCNCC5)n4)cc32)c(C)c1C(=O)O`, the IC50 in the test on FaDu [1] was found to be 5.62 µM.
Same read-out and setting: next, `Cc1[nH]c(/C=C2\C(=O)Nc3ccc(-c4cnn(-c5ccccc5)c4C)cc32)c(C)c1C(=O)N1CCN(C)CC1`: 14.8 µM; `Cc1cc(C)c(/C=C2\C(=O)Nc3cc(-c4cnc5ccnn5c4)ccc32)[nH]1`: 14.9 µM.
In the test with FaDu [1], `O=C1Nc2ccc(-c3csc(-c4ccncc4)n3)cc2/C1=C/c1cc2ccccc2[nH]1` yielded a half-maximal inhibitory concentration (IC50) of 3.07 µM. This IC50 is about 4.9-fold lower than that of the compound before.
`CCN(CC)CCNC(=O)c1c(C)[nH]c(/C=C2\C(=O)Nc3ccc(-c4csc(-c5ccccn5)n4)cc32)c1C` had an IC50 with FaDu [2] of 46.9 µM. In other words, the double-digit micromolar range.
The same measure, in the same setting: next, `O=C1Nc2ccc(-c3csc(-c4ccccc4)n3)cc2/C1=C/c1cc2ccccc2[nH]1`: 49.3 µM.
The same measure, in the same setting: the result for `Cc1cc(C)c(/C=C2\C(=O)Nc3cc(-c4ccc5ccccc5n4)ccc32)[nH]1` reads 14 µM.
For `CCN(CC)CCNC(=O)c1c(C)[nH]c(/C=C2\C(=O)Nc3ccc(-c4oc(-c5ccccc5)nc4C)cc32)c1C`, the IC50 in the test with FaDu [1] is 18.2 µM.
On the same count and under the same terms, next, `Cc1[nH]c(/C=C2\C(=O)Nc3ccc(-c4cnn(-c5ccccn5)c4)cc32)c(C)c1C(=O)N1CCOCC1`: 8.94 µM.
Compound `Cc1[nH]c(/C=C2\C(=O)Nc3ncc(-c4csc(-c5ccccc5)n4)cc32)c(C)c1C(=O)N1CCN(C)CC1` came in with an IC50 in the test on FaDu [2] of 39.2 µM.
In the test with FaDu [1], `CCOC(=O)c1c(C)[nH]c(/C=C2\C(=O)Nc3ccc(-c4csc(-c5ccccc5)n4)cc32)c1C` displayed a concentration for half-maximal inhibition (IC50) of 20.2 µM.
For `O=C1Nc2ccc(-c3csc(-c4ccccc4)n3)cc2/C1=C/c1ccc(N2CCOCC2)cc1`, the IC50 in the test with FaDu [2] is 35.5 µM.
In the test on FaDu [1], `CN1CCN(C(=O)c2ccc(/C=C3\C(=O)Nc4ccc(-c5csc(-c6ccccc6)n5)cc43)[nH]c2=O)CC1` had an IC50 of 23.2 µM.
In the case of `CCN(CC)CCNC(=O)c1c(C)[nH]c(/C=C2\C(=O)Nc3cc(-c4ccc5cc[nH]c(=O)c5c4)ccc32)c1C`, the IC50 in the test with FaDu [2] came out at 23.9 µM. In other words, the double-digit micromolar range.
Take `Cc1cc(C)c(/C=C2\C(=O)Nc3cc(-c4ccc(-c5ccccc5)nc4)ccc32)[nH]1`: in the test with FaDu [1], it took 18.2 µM to reach half-maximal inhibition (IC50).
Compound `CCN(CC)CCNC(=O)c1c(C)[nH]c(/C=C2\C(=O)Nc3ccc(-c4cnc(-c5ccccc5)s4)cc32)c1C` had an IC50 in the test on FaDu [2] of 23.7 µM. In other words, the double-digit micromolar range.
`CCN(CC)CCNC(=O)c1c(C)[nH]c(/C=C2\C(=O)Nc3ncc(-c4csc(-c5ccccc5)n4)cc32)c1C`: the IC50 with FaDu [1] was found to be 1.6 µM.
For the compound `Cc1ccc(-c2nc(-c3ccc4c(c3)/C(=C/c3[nH]c(C)c(C(=O)N5CCOCC5)c3C)C(=O)N4)cs2)cc1`, inhibition in the test on FaDu [2] was half-maximal at 3.05 µM (IC50).
Same read-out and setting: next, `COc1cccnc1-c1ccc2c(c1)/C(=C/c1[nH]c(C)cc1C)C(=O)N2`: 33.2 µM.
`Cc1[nH]c(/C=C2\C(=O)Nc3ccc(-c4ccnn4-c4ccc(C#N)cc4)cc32)c(C)c1C(=O)N1CCN(C)CC1` registered an IC50 in the test with FaDu [1] of 48.2 µM.
`CCOC(=O)CCc1cccc(-c2nc(-c3ccc4c(c3)/C(=C/c3[nH]c(C)c(C(=O)NCCN(CC)CC)c3C)C(=O)N4)cs2)c1` gave an IC50 with FaDu [1] of 2.34 µM.
